# Source: ChEMBL document CHEMBL1150218, “Antitubercular activity of triterpenoids from Lippia turbinata” (J Nat Prod, 2001)
# What was measured:
# [1] = tested on: Vero; test: Cytotoxicity against african green monkey Vero cells; format: cell-based; details: Chlorocebus sabaeus
# [2] = tested on: Mycobacterium tuberculosis; test: Antitubercular activity against Mycobacterium tuberculosis H37Rv ATCC 27294 by radiometric BACTEC 460 system; format: functional
SMILES,IC50 [1],MIC [2]
C/C=C(/C)C(=O)O[C@@H]1CC(C)(C)C[C@H]2C3=CC[C@@H]4[C@@]5(C)CCC(=O)C(C)(C)[C@@H]5CC[C@@]4(C)[C@]3(C)CC[C@@]12C(=O)O [LANTADENE A],15 µM,32 µM
C/C=C(/C)C(=O)O[C@@H]1CC(C)(C)C[C@H]2C3=CC[C@@H]4[C@]56CC[C@@](O)(OC5)C(C)(C)[C@@H]6CC[C@@]4(C)[C@]3(C)CC[C@@]12C(=O)O [CAMARIC ACID],,64 µM
CO[C@H]1/C=C/O[C@@]2(C)Oc3c(C)c(O)c4c(O)c(c(/C=N/N5CCN(C)CC5)c(O)c4c3C2=O)NC(=O)/C(C)=C\C=C\[C@H](C)[C@H](O)[C@@H](C)[C@@H](O)[C@@H](C)[C@H](OC(C)=O)[C@@H]1C [RIFAMPIN],,0.3 µM
C/C=C(\C)C(=O)O[C@@H]1[C@@H](O)C(C)(C)C[C@H]2C3=CC[C@@H]4[C@]56CC[C@](O)(OC5)C(C)(C)[C@@H]6CC[C@@]4(C)[C@]3(C)CC[C@@]12C(=O)O,,128 µM
CC(C)=CC(=O)O[C@@H]1CC(C)(C)C[C@H]2C3=CC[C@@H]4[C@]56CC[C@@](O)(OC5)C(C)(C)[C@@H]6CC[C@@]4(C)[C@]3(C)CC[C@@]12C(=O)O [LANTANILIC ACID],,> 128 µM
CCC(C)C(=O)O[C@@H]1CC(C)(C)C[C@H]2C3=CC[C@@H]4[C@]56CC[C@](O)(OC5)C(C)(C)[C@@H]6CC[C@@]4(C)[C@]3(C)CC[C@@]12C(=O)O (stereo not given in full),,128 µM
CC(C)=CC(=O)O[C@@H]1[C@@H](O)C(C)(C)C[C@H]2C3=CC[C@@H]4[C@]56CC[C@](O)(OC5)C(C)(C)[C@@H]6CC[C@@]4(C)[C@]3(C)CC[C@@]12C(=O)O,,128 µM
C/C=C(/C)C(=O)O[C@@H]1[C@@H](O)C(C)(C)C[C@H]2C3=CC[C@@H]4[C@]56CC[C@](O)(OC5)C(C)(C)[C@@H]6CC[C@@]4(C)[C@]3(C)CC[C@@]12C(=O)O,,64 µM
CC1(C)CC[C@]2(C(=O)O)CC[C@]3(C)C(=CC[C@@H]4[C@]56CC[C@@](O)(OC5)C(C)(C)[C@@H]6CC[C@]43C)[C@@H]2C1 [LANTANOLIC ACID],,> 128 µM
